Values after ≈ are worked out from the molar mass of the structure shown.

The test system of the test is Mycobacterium tuberculosis. In words: Antimycobacterial activity against Mycobacterium tuberculosis H37Rv ATCC 27294 after 7 days by microplate alamar blue assay. The class given is functional. Conditions: H37Rv ATCC 27294, 168 h.
In turn, `O=C(c1ccc([N+](=O)[O-])o1)N1CCc2ccccc21` showed an MIC90 of 0.482 µg/mL (≈ 1.87 µM).

For `O=C(c1ccc([N+](=O)[O-])o1)N1CC/C(=N\OCc2ccccc2)C1`, the MIC90 worked out at 0.291 µg/mL (≈ 0.884 µM).

In turn, `O=C(c1ccc([N+](=O)[O-])o1)N1CCC(=NOCc2ccc(C(F)(F)F)cc2)CC1` showed an MIC90 of more than 32 µg/mL.

Consider `CON=C1CCN(C(=O)c2ccc([N+](=O)[O-])o2)CC1`, for which the MIC90 turned out to be 1.93 µg/mL (≈ 7.23 µM).

In turn, `O=C(c1ccc([N+](=O)[O-])o1)N1CCC(=NOCc2ccc([N+](=O)[O-])cc2)CC1` showed an MIC90 of more than 32 µg/mL.

Compound `CCON=C1CCN(C(=O)c2ccc([N+](=O)[O-])o2)CC1` yielded an MIC90 of 14.1 µg/mL (≈ 50.3 µM).

With `O=C(c1ccc([N+](=O)[O-])o1)N1CCC(=NOCc2ccccc2)CC1`, the MIC90 was 0.158 µg/mL (≈ 0.46 µM).

In turn, `O=C(c1ccc([N+](=O)[O-])o1)N1CCC(=NOCc2ccc(OC(F)(F)F)cc2)CC1` registered an MIC90 of more than 32 µg/mL.

`CO/N=C1\CCN(C(=O)c2ccc([N+](=O)[O-])o2)C1`: the MIC90 amounted to 1.83 µg/mL (≈ 7.22 µM).

As to `CCO/N=C1\CCN(C(=O)c2ccc([N+](=O)[O-])o2)C1`, the MIC90 is more than 32 µg/mL.

In turn, `O=C(c1ccc([N+](=O)[O-])o1)N1CCC(=NOCc2ccc(F)cc2)CC1` registered an MIC90 of 5.88 µg/mL (≈ 16.3 µM).

As for `NNC(=O)c1ccncc1` [ISONIAZID], the MIC90 was found to be 0.035 µg/mL (≈ 0.255 µM).

With `CO[C@H]1/C=C/O[C@@]2(C)Oc3c(C)c(O)c4c(O)c(c(/C=N/N5CCN(C)CC5)c(O)c4c3C2=O)NC(=O)/C(C)=C\C=C\[C@H](C)[C@H](O)[C@@H](C)[C@@H](O)[C@@H](C)[C@H](OC(C)=O)[C@@H]1C` [RIFAMPIN], the MIC90 is 0.059 µg/mL (≈ 0.0717 µM).

(Values after ChEMBL document CHEMBL4229535, “Design, synthesis and evaluation of oxime-functionalized nitrofuranylamides as novel antitubercular agents” (2018).)
